The values below are quoted from earlier work in patent US10406114B2, “Antibiotic-loaded transdermal patch” (priority 2017, dated 2019).

The test system of the data set is Staphylococcus aureus.

For `CC1=C(C(=O)O)N2C(=O)[C@@H](NC(=O)[C@H](N)c3ccccc3)[C@H]2SC1` [cephalexin], the MIC entry is given as “about 8 μg/ml”.
